Source: US10000489B2, “Compounds αvβ6 integrin antagonists” (GlaxoSmithKline Intellectual Property Development Limited, priority 2014, dated 2018)
Structures can show the parent of a compound that is named as a salt. Where two headings read alike, the source gives them in different places.

Key:
Type in all cases: cell-based
αvβ8 = target: T1, αvβ8 (Homo sapiens, UniProt P06756+P26012); experiment: Cell adhesion assay, K562-αvβ8 (LAP-b1); details: read-out: αvβ8 pIC50 (converted)
T1 construct: expressed in transfected cells; host or cells: K562
Protocol: (§1) The following cell lines were used, with ligands in brackets: K562-αvβ3 (LAP-b1), K562-αvβ5 (Vitronectin), K562-αvβ6 (LAP-b1), K562-αvβ8 (LAP-b1), A549-αvβ1 (LAP-b1). The divalent cation used to facilitate adhesion was 2 mM MgCl2. Adhesion was quantified by cell labelling with the fluorescent dye BCECF-AM (Life Technologies), where cell suspensions at 3×10^6 cells/mL were incubated with 0.33 uL/mL of 30 mM BCECF-AM at 37° C. for 10 minutes, then 50 μL/well were dispensed into the 96-well assay plate. At the assay conclusion cells that adhered were lysed using 50 μL/well of 0.5% Triton X-100 in H2O to release fluorescence. Fluorescence intensity was detected using an Envision® plate reader (Perkin Elmer). For active antagonists in the assay, data were fitted to a 4 parameter logistic equation for IC50 determinations.
Figures quoted are Mean pIC50 values.

αvβ1 = target: T2, αvβ1 (Homo sapiens, UniProt P05556+P06756); experiment: Cell adhesion assay, A549-αvβ1 (LAP-b1)
T2 construct: host or cells: A549
Protocol: as §1
Figures quoted are Mean pIC50 values.

αvβ5 = target: T3, αvβ5 (Homo sapiens, UniProt P06756+P18084); experiment: Cell adhesion assay, K562-αvβ5 (Vitronectin); details: read-out: αvβ5 pIC50 (converted)
T3 construct: expressed in transfected cells; host or cells: K562
Protocol: as §1
Figures quoted are Mean pIC50 values.

αvβ3 = target: T4, αvβ3 (Homo sapiens, UniProt P05106+P06756); experiment: Cell adhesion assay, K562-αvβ3 (LAP-b1); details: read-out: αvβ3 pIC50 (converted)
T4 construct: expressed in transfected cells; host or cells: K562
Protocol: as §1
Figures quoted are Mean pIC50 values.

αvβ6 = target: T5, αvβ6 (Homo sapiens, UniProt P06756+P18564); experiment: Cell adhesion assay, K562-αvβ6 (LAP-b1); details: read-out: αvβ6 pIC50 (converted)
T5 construct: expressed in transfected cells; host or cells: K562
Protocol: as §1
Figures quoted are Mean pIC50 values.

[1] = cell adhesion, A549-αvβ1 cells, ligand LAP-b1, 2 mM MgCl2, mean pIC50

T1 sequence (P06756 31-889 limits assumed): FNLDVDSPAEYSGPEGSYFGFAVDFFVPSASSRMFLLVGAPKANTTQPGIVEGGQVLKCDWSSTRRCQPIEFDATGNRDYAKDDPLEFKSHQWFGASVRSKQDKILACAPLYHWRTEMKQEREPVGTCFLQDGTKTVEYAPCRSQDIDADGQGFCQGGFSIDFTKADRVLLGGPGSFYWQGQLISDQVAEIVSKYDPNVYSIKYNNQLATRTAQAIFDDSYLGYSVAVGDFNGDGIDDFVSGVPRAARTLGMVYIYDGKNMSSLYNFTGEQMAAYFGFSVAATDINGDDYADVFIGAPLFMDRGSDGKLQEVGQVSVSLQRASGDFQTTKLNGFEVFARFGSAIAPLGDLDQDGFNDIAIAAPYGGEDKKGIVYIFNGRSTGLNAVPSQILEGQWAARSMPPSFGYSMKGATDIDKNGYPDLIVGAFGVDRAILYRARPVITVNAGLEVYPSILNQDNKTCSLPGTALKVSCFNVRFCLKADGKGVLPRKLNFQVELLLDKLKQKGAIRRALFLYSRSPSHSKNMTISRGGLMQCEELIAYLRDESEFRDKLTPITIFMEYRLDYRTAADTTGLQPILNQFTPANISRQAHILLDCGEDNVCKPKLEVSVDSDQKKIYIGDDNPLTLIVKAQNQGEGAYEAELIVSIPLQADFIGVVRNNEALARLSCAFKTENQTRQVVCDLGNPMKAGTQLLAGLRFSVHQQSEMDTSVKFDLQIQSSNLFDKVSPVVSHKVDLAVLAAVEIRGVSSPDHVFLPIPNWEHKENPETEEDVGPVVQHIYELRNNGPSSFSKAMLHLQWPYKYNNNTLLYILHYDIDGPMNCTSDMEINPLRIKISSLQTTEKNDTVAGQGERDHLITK
T1 sequence (P06756 891-1048 partner limits assumed): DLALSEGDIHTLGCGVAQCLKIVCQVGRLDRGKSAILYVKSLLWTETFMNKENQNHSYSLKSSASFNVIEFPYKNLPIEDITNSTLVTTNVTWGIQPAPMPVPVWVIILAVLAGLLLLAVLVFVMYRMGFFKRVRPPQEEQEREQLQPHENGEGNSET
T1 sequence (P26012 43-769): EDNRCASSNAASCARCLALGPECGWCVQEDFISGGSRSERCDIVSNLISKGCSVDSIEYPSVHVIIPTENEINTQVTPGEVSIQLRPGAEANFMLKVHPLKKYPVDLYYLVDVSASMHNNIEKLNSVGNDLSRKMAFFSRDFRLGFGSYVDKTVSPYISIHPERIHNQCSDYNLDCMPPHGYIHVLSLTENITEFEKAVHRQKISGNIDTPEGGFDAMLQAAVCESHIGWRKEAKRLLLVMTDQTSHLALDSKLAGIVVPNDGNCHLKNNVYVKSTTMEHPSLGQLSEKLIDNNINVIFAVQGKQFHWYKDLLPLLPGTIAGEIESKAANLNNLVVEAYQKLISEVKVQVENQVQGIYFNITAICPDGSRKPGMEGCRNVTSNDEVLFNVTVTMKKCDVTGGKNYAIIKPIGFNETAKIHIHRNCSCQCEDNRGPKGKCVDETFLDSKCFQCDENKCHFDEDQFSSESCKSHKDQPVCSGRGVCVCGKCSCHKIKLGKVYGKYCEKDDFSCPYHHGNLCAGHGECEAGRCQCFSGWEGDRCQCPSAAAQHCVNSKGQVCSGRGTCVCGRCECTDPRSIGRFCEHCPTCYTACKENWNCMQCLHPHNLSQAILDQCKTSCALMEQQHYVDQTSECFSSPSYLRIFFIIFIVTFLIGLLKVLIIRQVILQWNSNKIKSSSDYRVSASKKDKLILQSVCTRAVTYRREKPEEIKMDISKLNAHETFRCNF
T2 sequence (P06756 31-889 limits assumed): as the sequence (P06756 31-889 limits assumed) above
T2 sequence (P06756 891-1048 partner limits assumed): as the sequence (P06756 891-1048 partner limits assumed) above
T2 sequence (P05556 21-798): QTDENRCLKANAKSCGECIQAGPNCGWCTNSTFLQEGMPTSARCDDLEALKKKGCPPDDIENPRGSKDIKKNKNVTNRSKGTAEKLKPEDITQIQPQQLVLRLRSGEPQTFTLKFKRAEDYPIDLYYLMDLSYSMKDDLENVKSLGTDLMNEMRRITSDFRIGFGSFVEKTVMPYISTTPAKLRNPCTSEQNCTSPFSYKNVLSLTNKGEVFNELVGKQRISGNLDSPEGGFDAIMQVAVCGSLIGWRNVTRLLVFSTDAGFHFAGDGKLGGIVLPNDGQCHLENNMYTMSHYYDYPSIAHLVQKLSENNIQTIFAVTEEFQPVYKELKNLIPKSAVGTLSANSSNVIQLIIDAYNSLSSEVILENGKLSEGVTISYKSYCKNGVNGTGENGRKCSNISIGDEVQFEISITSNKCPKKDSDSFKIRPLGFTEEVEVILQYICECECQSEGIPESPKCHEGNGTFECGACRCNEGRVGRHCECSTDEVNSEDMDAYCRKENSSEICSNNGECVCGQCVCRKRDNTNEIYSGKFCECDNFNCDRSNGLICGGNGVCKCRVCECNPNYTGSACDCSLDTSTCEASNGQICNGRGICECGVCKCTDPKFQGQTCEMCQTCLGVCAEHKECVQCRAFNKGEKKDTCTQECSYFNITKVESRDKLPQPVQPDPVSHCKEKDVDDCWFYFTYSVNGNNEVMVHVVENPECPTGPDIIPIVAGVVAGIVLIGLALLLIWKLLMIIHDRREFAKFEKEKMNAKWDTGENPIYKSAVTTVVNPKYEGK
T5 sequence (P06756 31-889 limits assumed): as the sequence (P06756 31-889 limits assumed) above
T5 sequence (P06756 891-1048 partner limits assumed): as the sequence (P06756 891-1048 partner limits assumed) above
T5 sequence (P18564 22-788): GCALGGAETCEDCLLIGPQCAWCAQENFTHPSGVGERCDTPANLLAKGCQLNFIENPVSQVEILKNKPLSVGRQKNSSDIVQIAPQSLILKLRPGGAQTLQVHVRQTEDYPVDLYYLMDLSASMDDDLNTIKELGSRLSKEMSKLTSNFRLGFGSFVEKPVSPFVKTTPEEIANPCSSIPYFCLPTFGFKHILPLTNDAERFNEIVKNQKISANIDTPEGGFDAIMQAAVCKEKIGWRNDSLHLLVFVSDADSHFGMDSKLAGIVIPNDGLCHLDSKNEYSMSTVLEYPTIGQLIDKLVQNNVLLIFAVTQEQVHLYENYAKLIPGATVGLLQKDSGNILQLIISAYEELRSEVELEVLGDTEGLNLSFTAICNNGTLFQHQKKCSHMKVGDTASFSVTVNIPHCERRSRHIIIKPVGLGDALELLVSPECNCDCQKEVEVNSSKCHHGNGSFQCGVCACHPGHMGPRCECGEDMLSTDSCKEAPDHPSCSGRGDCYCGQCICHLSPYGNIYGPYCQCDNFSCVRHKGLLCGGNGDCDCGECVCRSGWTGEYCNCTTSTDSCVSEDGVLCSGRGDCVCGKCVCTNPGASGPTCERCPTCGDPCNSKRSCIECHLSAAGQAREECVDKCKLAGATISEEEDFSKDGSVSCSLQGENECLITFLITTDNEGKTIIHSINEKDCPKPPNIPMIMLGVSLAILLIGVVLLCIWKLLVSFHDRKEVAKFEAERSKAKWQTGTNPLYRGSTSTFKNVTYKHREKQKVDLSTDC
T3 sequence (P06756 31-889 limits assumed): as the sequence (P06756 31-889 limits assumed) above
T3 sequence (P06756 891-1048 partner limits assumed): as the sequence (P06756 891-1048 partner limits assumed) above
T3 sequence (P18084 24-799): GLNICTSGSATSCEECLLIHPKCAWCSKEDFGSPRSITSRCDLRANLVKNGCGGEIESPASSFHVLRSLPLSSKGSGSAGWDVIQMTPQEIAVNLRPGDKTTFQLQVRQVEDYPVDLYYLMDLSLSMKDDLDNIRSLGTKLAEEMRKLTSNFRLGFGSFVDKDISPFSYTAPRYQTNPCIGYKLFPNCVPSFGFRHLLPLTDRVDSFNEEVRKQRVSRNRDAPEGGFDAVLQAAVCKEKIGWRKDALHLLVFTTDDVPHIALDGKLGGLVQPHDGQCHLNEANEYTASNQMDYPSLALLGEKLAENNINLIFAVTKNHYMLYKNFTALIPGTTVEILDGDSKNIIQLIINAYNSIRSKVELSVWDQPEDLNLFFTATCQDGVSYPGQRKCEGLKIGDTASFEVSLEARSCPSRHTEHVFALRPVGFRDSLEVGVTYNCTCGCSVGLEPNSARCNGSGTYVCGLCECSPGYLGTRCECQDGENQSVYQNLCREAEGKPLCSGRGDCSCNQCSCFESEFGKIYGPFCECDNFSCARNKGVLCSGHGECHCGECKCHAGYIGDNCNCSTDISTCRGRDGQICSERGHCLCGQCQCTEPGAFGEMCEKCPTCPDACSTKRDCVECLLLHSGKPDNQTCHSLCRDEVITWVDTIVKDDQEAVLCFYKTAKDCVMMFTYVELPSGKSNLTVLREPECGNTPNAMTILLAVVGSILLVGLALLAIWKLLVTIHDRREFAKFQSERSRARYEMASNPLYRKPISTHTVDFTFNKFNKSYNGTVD

| SMILES | IC50 (αvβ8) | IC50 (αvβ1; [1]) | IC50 (αvβ5) | IC50 (αvβ3) | IC50 (αvβ1; read-out: αvβ1 pIC50 (converted)) | IC50 (αvβ6) |
| --- | --- | --- | --- | --- | --- | --- |
| O=C(O)C[C@H](CN1CC[C@](F)(CCc2ccc3c(n2)NCCC3)C1)c1cccc(N2CCOCC2)c1 [Example 2, (S)-4-(R)-(3-Fluoro-3-(2-(5,6,7,8-tetrahydro-1,8-naphthyridin-2-yl)ethyl)pyrrolidin-1-yl)-3-(3-morpholinophenyl)butanoic acid] | 25.1 nM | – | – | – | – | – |
| O=C(O)C[C@H](CN1CC[C@@](F)(CCc2ccc3c(n2)NCCC3)C1)c1cccc(N2CCOCC2)c1 [Example 3, (S)-4-(S)-(3-Fluoro-3-(2-(5,6,7,8-tetrahydro-1,8-naphthyridin-2-yl)ethyl)pyrrolidin-1-yl)-3-morpholinophenyl)butanoic acid maleate salt] | – | 79.4 nM | – | – | – | – |
| O=C(O)C[C@H](CN1CC[C@@](F)(CCc2ccc3c(n2)NCCC3)C1)c1cccc(N2CCOCC2)c1 [Example 4, (S)-4-(S)-(3-Fluoro-3-(2-(5,6,7,8-tetrahydro-1,8-naphthyridin-2-yl)ethyl)pyrrolidin-1-yl)-3-(3-morpholinophenyl)butanoic acid fumarate salt] | – | 100 nM | – | – | – | – |
| O=C(O)C[C@H](CN1CC[C@@](F)(CCc2ccc3c(n2)NCCC3)C1)c1cc(N2CCOCC2)ccc1F [Example 5, (S)-4-((S)-3-Fluoro-3-(2-(5,6,7,8-tetrahydro-1,8-naphthyridin-2-yl)ethyl)pyrrolidin-1-yl)-3-(2-fluoro-5-morpholinophenyl)butanoic acid] | 25.1 nM | – | 316 nM | 794 nM | 158 nM | 15.8 nM |
| O=C(O)CC(CN1CC[C@](F)(CCc2ccc3c(n2)NCCC3)C1)c1cc(N2CCOCC2)ccc1F (stereo partly drawn) [Example 9, 4-((R)-3-Fluoro-3-(2-(5,6,7,8-tetrahydro-1,8-naphthyridin-2-yl)ethyl)pyrrolidin-1-yl)-3-(2-fluoro-5-morpholinophenyl)butanoic acid] | 79.4 nM | – | 316 nM | 7940 nM | – | 25.1 nM |
